Among the data in US20110166121A1 (LG LIFE SCIENCES LTD., priority 2008, published 2011) are Ki values, retold here.

Where a name gives a salt, the structure may show the parent alone.

Broadly, the Ki is a dissociation constant, usually derived from enzyme kinetics or from competition with a known ligand. High values mean lower affinity, low ones higher affinity.

For the assay, the system named is Human platelet aggregation caused by ADP. In words: Inhibition of ADP-induced platelet aggregation (Mimic-human PRP). To be noted: 20 μM ADP, human platelet concentrate diluted with PPP, absorption at 595 nm. Type of assay: cell-based. The procedure: Platelet Preparation for Aggregation Studies
Human platelet aggregation reaction test is a functional experiment method to verify whether a test compound is an agonist or an antagonist to ADP receptor. […] The platelet product isolated from whole blood was purchased from Chung-Nam blood center (Dae-joen, South Korea). The platelet was isolated from 400 mL of whole blood containing 56 mL of CPDA-1 anticoagulant. To isolate the platelet product, 400 mL of whole blood was centrifuged at 260×g for 5 minutes, and then obtained PRP (platelet rich plasma) was secondary centrifuged at 370×g for 6 minutes. Platelet pellet (10^9/mL) was suspended with 45 mL of plasma and then agitated over 1 hour at 22° C. blood reservoir to stabilize it. The stabilized platelet product was used in the experiment within 24 hours. PCs (Platelet Concentrates) were gently transferred to a new 50 ml-falcon tube. The number of platelet was counted by using animal blood counter (ABC Vet, ABX diagnostics, France). The volume of 30 mL of PCs collected from same donor was centrifuged at 1500 g for 10 min at room temperature to prepare platelet-poor plasma (PPP). The platelet count was adjusted to platelet number of 3˜4×10^8/mL by diluting with PPP.
Evaluation on Inhibitory Effect of ADP-Induced Aggregation
Inhibition of ADP-induced aggregation was determined in 96-well flat-bottom plates (Costar, USA) at room temperature. The diluted platelet was aliquoted into each well of 96 well plate in the volume of 188 μl. […] The platelet including test compounds was immediately mixed on a shaker at 1050 rpm for 1 min and incubated at room temperature for 20 min. Then, 10 μL volume of 400 μM ADP was added: the final concentration of 20 μM ADP in the total reaction volume of 0.2 mL/well. After shaking of the plate at room temperature for 3 min, the absorption of the samples was determined at 595 nm using a microtiter plate reader (Softmax, Molecular Devices).
A dose-dependent curve on serial dilutions of ADP was accomplished by adding vehicle (DMSO) instead of antagonists in order to calculate EC50 of ADP. Inhibition of aggregation was calculated from the increase of absorption at 595 nm at 3 min of the reaction incubation, compared to results of absorption between the 0 and 20 μM ADP control without antagonists. Sigmoidal dose-response curves and Ki were derived by non-linear regression analysis using the Prism software (GraphPad, San Diego Calif.).
`CCCc1cc2c(N3CCn4c(nnc4C(F)(F)F)C3)nc(OC[C@H]3CCN(C(C)=O)C3)nc2s1` [Example 8-37, 1-{(S)-3-[6-Propyl-4-(3-trifluoromethyl-5,6-dihydro-8H-[1,2,4]triazolo[4,3-a]pyrazin-7-yl)-thieno[2,3-d]pyrimidin-2-yloxymethyl]-pyrrolidin-1-yl}-ethanone]: the Ki worked out at 43 nM. With `CCCc1cc2c(N3CCn4c(nnc4C(F)(F)F)C3)nc(N3CCC[C@H](NC(C)=O)C3)nc2s1` [Example 7-9, Hydrochloric acid salt of N-{(S)-1-[6-Propyl-4-(3-trifluoromethyl-5,6-dihydro-8H-[1,2,4]triazolo[4,3-a]pyrazin-7-yl)-thieno[2,3-d]pyrimidin-2-yl]-piperidin-3-yl}-acetamide] the figure was 590 nM; with `CCCc1cc2c(N3CCn4c(nnc4C(F)(F)F)C3)nc(NCCNC=O)nc2s1` [Example 9-31, N-{2-[6-Propyl-4-(3-trifluoromethyl-5,6-dihydro-8H-[1,2,4]triazolo[4,3-a]pyrazin-7-yl)-thieno[2,3-d]pyrimidin-2-ylamino]-ethyl}-formamide], 87 nM; with `CCCc1cc2c(N3CCn4c(nnc4C(F)(F)F)C3)nc(-n3cc(C)cn3)nc2s1` [Example 9-55, 7-[2-(4-Methyl-pyrazol-1-yl)-6-propyl-thieno[2,3-d]pyrimidin-4-yl]-3-trifluoromethyl-5,6,7,8-tetrahydro-[1,2,4]triazolo[4,3-a]pyrazine], 340 nM. The same measure for `CCCc1cc2c(N3CCn4c(nnc4C(F)(F)F)C3)nc(-n3cncn3)nc2s1` [Example 9-43, 7-(6-Propyl-2-[1,2,4]triazol-1-yl-thieno[2,3-d]pyrimidin-4-yl)-3-trifluoromethyl-5,6,7,8-tetrahydro-[1,2,4]triazolo[4,3-a]pyrazine]: 330 nM; for `CCCc1cc2c(N3CCn4c(nnc4C(F)(F)F)C3)nc(N3CC(=O)N(CCO)C3=O)nc2s1` [Example 9-51, 3-(2-Hydroxy-ethyl)-1-[6-propyl-4-(3-trifluoromethyl-5,6-dihydro-8H-[1,2,4]triazolo[4,3-a]pyrazin-7-yl)-thieno[2,3-d]pyrimidin-2-yl]-imidazolidine-2,4-dione]: 190 nM.

Take `CCCc1cc2c(N3CCn4c(nnc4C(F)(F)F)C3)nc(OCCN3CCOC3=O)nc2s1` [Example 9-99, 3-{2-[6-Propyl-4-(3-trifluoromethyl-5,6-dihydro-8H-[1,2,4]triazolo[4,3-a]pyrazin-7-yl)-thieno[2,3-d]pyrimidin-2-yloxy]-ethyl}-oxazolidin-2-one]: the affinity, expressed as Ki, was 4 nM. Consider `CCCc1cc2c(N3CCn4c(nnc4C(F)(F)F)C3)nc(OCCCCNC(=O)OC)nc2s1` [Example 9-88, {4-[6-Propyl-4-(3-trifluoromethyl-5,6-dihydro-8H-[1,2,4]triazolo[4,3-a]pyrazin-7-yl)-thieno[2,3-d]pyrimidin-2-yloxy]-butyl}-carbamic acid methyl ester], for which the Ki was determined as 420 nM. The same measure for `CCCc1cc2c(N3CCn4c(nnc4C(F)(F)F)C3)nc(OCCNC(=O)C(C)(C)O)nc2s1` [Example 7-33, 2-Hydroxy-2-methyl-N-{2-[6-propyl-4-(3-trifluoromethyl-5,6-dihydro-8H-[1,2,4]triazolo[4,3-a]pyrazin-7-yl)-thieno[2,3-d]pyrimidin-2-yloxy]-ethyl}-propionamide]: 6.7 nM; for `CCCc1cc2c(N3CCn4c(nnc4C(F)(F)F)C3)nc(N3CC(N)C(N)C3)nc2s1` (stereo not shown) [Example 7-27, Di-hydrochloric acid salt of 1-[6-Propyl-4-(3-trifluoromethyl-5,6-dihydro-8H-[1,2,4]triazolo[4,3-a]pyrazin-7-yl)-thieno[2,3-d]pyrimidin-2-yl]-pyrrolidine-3,4-diamine]: 17 nM; for `CCC(=O)c1cc2c(N3CCn4c(nnc4C(F)(F)F)C3)nc(OCCC(=O)O)nc2s1` [Example 9-61, 3-[6-Propionyl-4-(3-trifluoromethyl-5,6-dihydro-8H-[1,2,4]triazolo[4,3-a]pyrazin-7-yl)-thieno[2,3-d]pyrimidin-2-yloxy]-propionic acid]: over 10000 nM. As to `CCCc1cc2c(N3CCn4c(nnc4C(F)(F)F)C3)nc(OCCN(CCO)C(=O)OC)nc2s1` [Example 9-98, (2-Hydroxy-ethyl)-{2-[6-propyl-4-(3-trifluoromethyl-5,6-dihydro-8H-[1,2,4]triazolo[4,3-a]pyrazin-7-yl)-thieno[2,3-d]pyrimidin-2-yloxy]-ethyl}-carbamic acid methyl ester], the affinity corresponds to a Ki of 23 nM. With `CCCc1cc2c(N3CCn4c(nnc4C(F)(F)F)C3)nc(N3CC[C@H](NC(=O)Cc4ccccn4)C3)nc2s1` [Example 1-121, N-{(S)-1-[6-Propyl-4-(3-trifluoromethyl-5,6-dihydro-8H-[1,2,4]triazolo[4,3-a]pyrazin-7-yl)-thieno[2,3-d]pyrimidin-2-yl]-pyrrolidin-3-yl}-2-pyridin-2-yl-acetamide] the figure was 19 nM; with `CCCC(=O)N[C@H]1CCCN(c2nc(N3CCn4c(nnc4C(F)(F)F)C3)c3cc(CCC)sc3n2)C1` [Example 7-10, Hydrochloric acid salt of N-{(S)-1-[6-Propyl-4-(3-trifluoromethyl-5,6-dihydro-8H-[1,2,4]triazolo[4,3-a]pyrazin-7-yl)-thieno[2,3-d]pyrimidin-2-yl]-piperidin-3-yl}-butyramide], 980 nM; with `CCCc1cc2c(N3CCn4c(nnc4C(F)(F)F)C3)nc(N=[N+]=[N-])nc2s1` [Example 9-37, 7-(2-Azido-6-propyl-thieno[2,3-d]pyrimidin-4-yl)-3-trifluoromethyl-5,6,7,8-tetrahydro-[1,2,4]triazolo[4,3-a]pyrazine], 200 nM. In turn, `CCCc1cc2c(N3CCn4c(nnc4C(F)(F)F)C3)nc(NCCNC(C)=O)nc2s1` [Example 8-7, N-{2-[6-Propyl-4-(3-trifluoromethyl-5,6-dihydro-8H-[1,2,4]triazolo[4,3-a]pyrazin-7-yl)-thieno[2,3-d]pyrimidin-2-ylamino]-ethyl}-acetamide] returned an inhibition constant Ki of 32 nM. With `CCCC(=O)NC1CN(c2nc(N3CCn4c(nnc4C(F)(F)F)C3)c3cc(CCC)sc3n2)CC1O` (stereo not shown) [Example 7-19, N-{4-Hydroxy-1-[6-propyl-4-(3-trifluoromethyl-5,6-dihydro-8H-[1,2,4]triazolo[4,3-a]pyrazin-7-yl)-thieno[2,3-d]pyrimidin-2-yl]-pyrrolidin-3-yl}-butyramide] the figure was 5 nM; with `CCCc1cc2c(N3CCn4c(nnc4C(F)(F)F)C3)nc(OCC(C)NC(=O)OC)nc2s1` (stereo not shown) [Example 9-81, {1-Methyl-2-[6-propyl-4-(3-trifluoromethyl-5,6-dihydro-8H-[1,2,4]triazolo[4,3-a]pyrazin-7-yl)-thieno[2,3-d]pyrimidin-2-yloxy]-ethyl}-carbamic acid methyl ester], 7 nM; with `CCCc1cc2c(N3CCn4c(nnc4C(F)(F)F)C3)nc(NC[C@@H]3CCN(C(C)=O)C3)nc2s1` [Example 8-19, 1-((S)-3-{[6-Propyl-4-(3-trifluoromethyl-5,6-dihydro-8H-[1,2,4]triazolo[4,3-a]pyrazin-7-yl)-thieno[2,3-d]pyrimidin-2-ylamino]-methyl}-pyrrolidin-1-yl)-ethanone], 150 nM.
